These results are taken from US9301955B2, “Tritoqualine for use in the treatment of cystic fibrosis” (ORPHAN SYNERGY EUROPE-PHARMA, priority 2012, dated 2016).

Ends that are not written are not given here.

This assay has as its system IL8 release, epithelial cells from human gingival mucosa. Description: IL8 release in human ex vivo gingival mucosa model stimulated by substance P. Conditions: gingival mucosa stimulated by substance P 10 microM alone; measured at 24 hours; versus 29.6 ng/ml in control group (p=0.04). The format is cell-based. As for the experimental part:
Tritoqualin effect on IL8 release on a human ex vivo model (epithelial Cells from Human gingival extraction maintained in survival) after stimulation of IL8 release
13 fragments of gingival mucous from different human donors (removal of wisdom teeth of healthy volunteers) were maintained in survival ex vivo. To this end, fragments were placed in inserts themselves willing suspended above the culture wells. The nutrient medium (antibiotics, FCS—Fetal Calf Serum) was added to the bottom of the wells, passage is carried out by slow diffusion of the two compartments by means of a porous membrane ([…]). The whole was maintained in organ culture for 24 hours in an oven to a humid atmosphere at 37° C. in the presence of 5% CO2.
Gingival inflammation was achieved by stimulation of the mucosa with a neurotransmitter, substance P (10 microM) deposited in the culture medium. Tritoqualine was added to the culture medium (systemic effect) at a concentration of 20 microM, 10 minutes after application of substance P. […]
The inflammatory cytokine, IL8, a potent chemo attractant of neutrophils, was measured in culture supernatants, 24 hours after deposition of substance P.
IL8 was measured in ng/ml by immunoassays (kits Gen Probe, France) with a spectrophotometer at 450 nm.

Take “Substance P: neurotransmitter, an established pro-inflammatory compound used to stimulate IL8 release (RPKPQQFFGLM-NH2; ends and bridges not checked; UniProt P20366 58-68, looked up)”: the “IL8 release in culture supernatant” value came to 31.7 ng/mL.
